Starred links: 1 amine or outer side, 2 acyl side, 3 side chain; linkers in the order of their positions; H or OH if unused. Positions of bridges follow the written chain, without caps; N, C: chain ends. Non-standard residues stand in square brackets, D forms with d. Residues, ends and D or L forms follow the SMILES beside them. *: point of attachment. hPhe(3,5-F2-4-CF3) = N[C@@H](CCc1cc(F)c(C(F)(F)F)c(F)c1)C(=O)O; hPhe(3-Cl-4-CF3) = N[C@@H](CCc1ccc(C(F)(F)F)c(Cl)c1)C(=O)O; X38 = CN([C@@H](Cc1cccc(OC(F)(F)F)c1)C(=O)[*:2])[*:1]; NMePhe(4-CF3) = CN[C@@H](Cc1ccc(C(F)(F)F)cc1)C(=O)O; Phe(4-CF3) = N[C@@H](Cc1ccc(C(F)(F)F)cc1)C(=O)O; NMePhe(4-Cl) = CN[C@@H](Cc1ccc(Cl)cc1)C(=O)O; NMePhe(2-CN) = CN[C@@H](Cc1ccccc1C#N)C(=O)O; NMePhe(4-Me) = CN[C@@H](Cc1ccc(C)cc1)C(=O)O; NMedβ3hAla = C[C@H](CC(=O)[*:2])N(C)[*:1]; Phe(3-I) = N[C@@H](Cc1cccc(I)c1)C(=O)O; Pro(4,4-F2) = O=C(O)[C@@H]1CC(F)(F)CN1; NMeCha = CN[C@@H](CC1CCCCC1)C(=O)O; Ala(cPr) = N[C@@H](CC1CC1)C(=O)O; NMeChg = CN[C@H](C(=O)O)C1CCCCC1; NMeD = CN[C@@H](CC(=O)O)C(=O)O; NMeL = CN[C@@H](CC(C)C)C(=O)O; Ahp(2) = CCCCC[C@H](N)C(=O)O; NMeV = CN[C@H](C(=O)O)C(C)C; d(β3hA) = C[C@@H](N)CC(=O)O; NMeA = CN[C@@H](C)C(=O)O; NMeAib = CNC(C)(C)C(=O)O; Nle = CCCC[C@H](N)C(=O)O; Piperidide = C1CCN(*)CC1; dNMeA = CN[C@H](C)C(=O)O; Ac5c = NC1(C(=O)O)CCCC1; Aze = O=C(O)[C@@H]1CCN1; Ac4c = NC1(C(=O)O)CCC1; Sar = CNCC(=O)O

These results are taken from patent publication US12371454B2, “Cyclic peptide compound having Kras inhibitory action” (priority 2019, dated 2025).

The target of the assay is T1, Kras and SOS1 (biotin-tagged human Kras loaded with GDP, His-tagged human SOS1) (Homo sapiens, UniProt P01116, G12D).
T1 construct: made in house; host or cells: E. coli (stated for Kras only)
T1 sequence (P01116 1-188 isoform P01116-2 G12D): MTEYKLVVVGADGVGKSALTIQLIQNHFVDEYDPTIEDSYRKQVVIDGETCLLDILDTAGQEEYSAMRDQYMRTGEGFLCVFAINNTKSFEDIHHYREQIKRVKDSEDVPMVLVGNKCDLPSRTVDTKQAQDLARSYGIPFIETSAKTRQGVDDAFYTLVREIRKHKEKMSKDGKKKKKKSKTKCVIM
Description: Protein-protein interaction inhibition between Kras and SOS1 (KrasGl2D-SOS PPI) using AlphaScreen. The assay is classed as binding. Conditions: AlphaScreen; biotin-tagged human Kras loaded with GDP, His-tagged human SOS1; read-out: KRAS G12D-SOS PPI IC50. The method, boiled down:
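Energy transfer from nickel-chelate donor beads bound to His-SOS1 to streptavidin acceptor beads bound to biotin-Kras, expressed in E. coli and loaded with GDP after purification, was monitored. Donors were excited at 680 nm; singlet oxygen reaching acceptors gave emission read at 520-620 nm.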
With `CC[C@H](C)[C@@H]1NC(=O)[C@H](CC(C)C)N(C)C(=O)C[C@@H](C(=O)N2CCCCC2)N(C)C(=O)[C@H](CC(C)C)NC(=O)C(C)(C)N(C)C(=O)[C@H](Cc2ccc(C(F)(F)F)cc2)NC(=O)[C@H](Cc2cccc(I)c2)NC(=O)CN(C)C(=O)[C@H](CC2CCCCC2)N(C)C(=O)CN(C)C(=O)CN(C)C1=O` [Compound 336] ([NMeL]I[Sar][Sar][NMeCha][Sar][Phe(3-I)][Phe(4-CF3)][NMeAib]L[NMeD]-Piperidide; lactam N-11), the half-inhibitory concentration (IC50) (as a rule, the concentration at which inhibition is half-maximal) amounted to 93 nM. For the compound `CC(C)C[C@H]1C(=O)N[C@@H](CC2CC2)C(=O)N(C)CC(=O)N(C)CC(=O)N(C)[C@@H](CC2CCCCC2)C(=O)N(C)CC(=O)N[C@@H](CCc2ccc(C(F)(F)F)c(Cl)c2)C(=O)N2CCC[C@H]2C(=O)NC2(CCCC2)C(=O)N(C)[C@@H](C(C)C)C(=O)N(C)[C@H](C(=O)N2CCCCC2)CC(=O)N1C` [Compound 421] ([NMeL][Ala(cPr)][Sar][Sar][NMeCha][Sar][hPhe(3-Cl-4-CF3)]P[Ac5c][NMeV][NMeD]-Piperidide; lactam N-11), the half-inhibitory concentration (IC50) was 10 nM.

With `CCCCC[C@@H]1NC(=O)[C@H](CC(C)C)N(C)C(=O)C[C@@H](C(=O)N2CCCCC2)N(C)C(=O)[C@H](C2CCCCC2)N(C)C(=O)C2(CCCC2)NC(=O)[C@@H]2CCCN2C(=O)[C@H](CCc2ccc(C(F)(F)F)c(Cl)c2)NC(=O)CN(C)C(=O)[C@H](CC2CCCCC2)N(C)C(=O)CN(C)C(=O)CN(C)C1=O` [Compound 1692] ([NMeL][Ahp(2)][Sar][Sar][NMeCha][Sar][hPhe(3-Cl-4-CF3)]P[Ac5c][NMeChg][NMeD]-Piperidide; lactam N-11), the IC50 was found to be 3.5 nM. The same measure for `CC[C@H](C)[C@@H]1NC(=O)[C@H](CC(C)C)N(C)C(=O)C[C@@H](C)N(C)C(=O)[C@H](C2CCCCC2)N(C)C(=O)C2(CCC2)NC(=O)[C@@H]2CC(F)(F)CN2C(=O)[C@H](CCc2cc(F)c(C(F)(F)F)c(F)c2)NC(=O)CN(C)C(=O)[C@H](Cc2ccc(C(F)(F)F)cc2)N(C)C(=O)CN(C)C(=O)CN(C)C1=O` [Compound 579] (cyclo([Ac4c][NMeChg][NMedβ3hAla][NMeL]I[Sar][Sar][NMePhe(4-CF3)][Sar][hPhe(3,5-F2-4-CF3)][Pro(4,4-F2)])): 17 nM; for `CC[C@H](C)[C@@H]1NC(=O)[C@H](CC2CCCCC2)N(C)C(=O)C[C@@H](C)NC(=O)[C@H](C(C)C)N(C)C(=O)C2(CCCC2)NC(=O)[C@@H]2CCCN2C(=O)[C@H](CCc2ccc(C(F)(F)F)c(Cl)c2)NC(=O)CN(C)C(=O)[C@H](CC2CCCCC2)N(C)C(=O)[C@@H]2CCN2C(=O)[C@H](C)N(C)C1=O` [Compound 38] (cyclo([Ac5c][NMeV][d(β3hA)][NMeCha]I[NMeA][Aze][NMeCha][Sar][hPhe(3-Cl-4-CF3)]P)): 160 nM; for `CC[C@H](C)[C@@H]1NC(=O)[C@H](CC(C)C)N(C)C(=O)C[C@@H](C)N(C)C(=O)[C@H](CC(C)C)NC(=O)C(C)(C)N(C)C(=O)[C@H](CC(C)C)NC(=O)[C@H](CCc2ccc(C(F)(F)F)c(Cl)c2)NC(=O)[C@@H](C)N(C)C(=O)[C@H](Cc2ccc(C(F)(F)F)cc2)N(C)C(=O)[C@@H]2CCN2C(=O)CN(C)C1=O` [Compound 1395] (cyclo([Aze][NMePhe(4-CF3)][dNMeA][hPhe(3-Cl-4-CF3)]L[NMeAib]L[NMedβ3hAla][NMeL]I[Sar])): 270 nM. The same measure for `CCCC[C@@H]1NC(=O)[C@H](Cc2cccc(I)c2)NC(=O)CN(C)C(=O)[C@H](Cc2ccc(Cl)cc2)N(C)C(=O)CN(C)C(=O)CN(C)C(=O)[C@H]([C@@H](C)CC)NC(=O)[C@H](CC(C)C)N(C)C(=O)C[C@@H](C(=O)N2CCCCC2)N(C)C(=O)[C@H](CC(C)C)NC(=O)[C@H](Cc2cccc(OC(F)(F)F)c2)N(C)C1=O` [Compound 143] ([NMeL]I[Sar][Sar][NMePhe(4-Cl)][Sar][Phe(3-I)][Nle][X38]L[NMeD]-Piperidide; lactam N-11): 68 nM.

`CC[C@H](C)[C@@H]1NC(=O)[C@H](CC(C)C)N(C)C(=O)C[C@@H](C)NC(=O)[C@H](C(C)C)N(C)C(=O)C2(CCCC2)NC(=O)[C@@H]2CCCN2C(=O)[C@H](CCc2ccc(C(F)(F)F)c(Cl)c2)NC(=O)CN(C)C(=O)[C@H](Cc2ccccc2C#N)N(C)C(=O)CN(C)C(=O)CN(C)C1=O` [Compound 767] (cyclo([Ac5c][NMeV][d(β3hA)][NMeL]I[Sar][Sar][NMePhe(2-CN)][Sar][hPhe(3-Cl-4-CF3)]P)): the IC50 is 24 nM. The same measure for `CC[C@H](C)[C@@H]1NC(=O)[C@H](C)N(C)C(=O)C[C@@H](C)N(C)C(=O)[C@H](CC(C)C)NC(=O)C(C)(C)N(C)C(=O)[C@H](CC(C)C)NC(=O)[C@H](CCc2ccc(C(F)(F)F)c(Cl)c2)NC(=O)CN(C)C(=O)[C@H](Cc2ccc(C)cc2)N(C)C(=O)[C@@H]2CCN2C(=O)[C@H](C)N(C)C1=O` [Compound 1402] (cyclo([Aze][NMePhe(4-Me)][Sar][hPhe(3-Cl-4-CF3)]L[NMeAib]L[NMedβ3hAla][NMeA]I[NMeA])): 57 nM.
